Measurements as given in US20200079773A1, “CARBOXYLIC ACID DERIVATIVES OF PYRIDOQUINAZOLINES USEFUL AS PROTEIN KINASE INHIBITORS” (ONCOSTELLAE, S.L., priority 2017, published 2020).

Legend:
Format in all cases: biochemical
JAK3 = biological target: T1, JAK3 (Homo sapiens, UniProt P52333); assay: Functional assay of protein kinases (Caliper mobility shift), JAK3; conditions: ATP 8 μM, 30 min incubation
T1 construct: purchased Carna Biosciences 08-046
Method: (§1) Functional Assays of Protein Kinases
(§2) The functional assays of protein kinases were carried out in 384-well plates using a final volume of 30 μl. […] The reaction was reads in a “Caliper EzReader LabChip 3000” (Caliper, Hopkinton, Mass.) reader, based on electrophoretic mobility of the fluorescent substrate and the phosphorylated product.
(§3) The inhibition percentages were calculated by comparison between control reactions, for 100% of inhibition and reactions with only DMSO for 0% of inhibition.

JAK2 = biological target: T2, JAK2 (Homo sapiens, UniProt O60674); assay: Functional assay of protein kinases (Caliper mobility shift), JAK2; conditions: ATP 300 μM, 30 min incubation
T2 construct: purchased Carna Biosciences 08-045
T2 sequence (O60674 826-1132 limits assumed): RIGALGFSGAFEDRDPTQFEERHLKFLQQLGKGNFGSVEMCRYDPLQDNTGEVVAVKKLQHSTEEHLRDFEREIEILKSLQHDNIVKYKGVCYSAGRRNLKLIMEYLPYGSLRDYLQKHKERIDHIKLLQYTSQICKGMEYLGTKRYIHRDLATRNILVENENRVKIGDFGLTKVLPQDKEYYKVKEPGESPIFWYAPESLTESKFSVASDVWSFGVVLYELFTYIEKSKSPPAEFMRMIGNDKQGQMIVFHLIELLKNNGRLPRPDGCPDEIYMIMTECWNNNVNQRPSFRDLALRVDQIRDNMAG
Method: as §1, §2, §3

JAK1 = biological target: T3, JAK1 (Homo sapiens, UniProt P23458); assay: Functional assay of protein kinases (Caliper mobility shift), JAK1; conditions: ATP 100 μM, 150 min incubation
T3 construct: purchased Carna Biosciences 08-144
T3 sequence (P23458 850-1154 limits assumed): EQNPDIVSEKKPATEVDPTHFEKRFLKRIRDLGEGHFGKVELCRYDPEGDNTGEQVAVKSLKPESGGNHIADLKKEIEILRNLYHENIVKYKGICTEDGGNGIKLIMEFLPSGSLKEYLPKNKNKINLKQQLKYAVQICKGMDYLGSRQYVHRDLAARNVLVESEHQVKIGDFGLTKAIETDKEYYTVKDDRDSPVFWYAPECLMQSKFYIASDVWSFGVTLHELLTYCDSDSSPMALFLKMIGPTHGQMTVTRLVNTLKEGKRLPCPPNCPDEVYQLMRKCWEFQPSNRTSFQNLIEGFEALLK
Method: as §1, §2, §3

TYK2 = biological target: T4, TYK2 (Homo sapiens, UniProt P29597); assay: Functional assay of protein kinases (Caliper mobility shift), TYK2; conditions: ATP 20 μM, 45 min incubation
T4 construct: purchased Carna Biosciences 08-147
T4 sequence (P29597 871-1187 limits assumed): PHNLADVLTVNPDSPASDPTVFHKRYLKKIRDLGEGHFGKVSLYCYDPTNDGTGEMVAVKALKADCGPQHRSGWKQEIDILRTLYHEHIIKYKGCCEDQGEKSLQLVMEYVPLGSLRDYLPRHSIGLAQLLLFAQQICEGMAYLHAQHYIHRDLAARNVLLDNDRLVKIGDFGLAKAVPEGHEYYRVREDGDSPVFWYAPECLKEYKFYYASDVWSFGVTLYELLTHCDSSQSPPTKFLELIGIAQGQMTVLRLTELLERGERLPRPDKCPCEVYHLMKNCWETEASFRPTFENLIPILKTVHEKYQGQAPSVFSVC
Method: as §1, §2, §3

T1 sequence (P52333 795-1124 limits assumed): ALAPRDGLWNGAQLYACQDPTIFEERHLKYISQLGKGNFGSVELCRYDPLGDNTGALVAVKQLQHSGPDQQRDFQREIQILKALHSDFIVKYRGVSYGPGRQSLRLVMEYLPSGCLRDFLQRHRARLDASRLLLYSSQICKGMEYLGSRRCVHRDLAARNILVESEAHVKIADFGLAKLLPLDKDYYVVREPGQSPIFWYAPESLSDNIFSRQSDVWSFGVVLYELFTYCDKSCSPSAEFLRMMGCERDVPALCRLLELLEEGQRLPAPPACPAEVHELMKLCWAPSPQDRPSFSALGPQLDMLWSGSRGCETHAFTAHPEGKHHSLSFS

Compound | IC50 (JAK3) [nM] | IC50 (JAK2) [nM] | IC50 (JAK1) [nM] | IC50 (TYK2) [nM]
O=C(NC1CCC(C(=O)O)CC1)c1cccn2c(=O)c3cc(C4CC4)ccc3nc12 (stereo not drawn) [Example 1, 4-(2-cyclpropyl-11-oxo-11H-pyrido[2,1-b]quinazoline-6-carboxamido)cyclohexane-1-carboxylic acid] | < 100 | ≥ 1000 | ≥ 1000 | 
Cc1ccc(-c2ccc3nc4c(C(=O)N[C@H]5CC[C@@H](C(=O)O)CC5)cccn4c(=O)c3c2)s1 [Example 2, (1S,4S)-4-(2-(5-methylthiophen-2-yl)-11-oxo-11H-pyrido[2,1-b]quinazoline-6 carboxamido)cyclohexane-1-carboxylic acid] | < 100 |  |  | < 100
O=C(NC1CCC(C(=O)O)CC1)c1cccn2c(=O)c3cc(C4CC4)ccc3nc12 [Example 4, (1R,4R)-4-(2-cyclopropyl-11-oxo-11H-pyrido[2,1-b]quinazoline-6-carboxamido)cyclohexane-1-carboxylic acid] | 100 to 1000 | ≥ 1000 | ≥ 1000 | ≥ 1000
O=C(NC12CCC(C(=O)O)(CC1)C2)c1cccn2c(=O)c3cc(C4CC4)ccc3nc12 [Example 7, 4-(2-cyclpropyl-11-oxo-11H-pyrido[2,1-b]quinazoline-6-carboxamido)bicyclo[2.2.1]heptane-1-carboxylic acid] | 100 to 1000 | ≥ 1000 | ≥ 1000 | 100 to 1000
Cc1cc(C(=O)N[C@H]2CC[C@@H](C(=O)O)CC2)c2nc3ccccc3c(=O)n2c1 [Example 11, (1S,4S)-4-(8-methyl-11-oxo-11H-pyrido[2,1-b]quinazoline-6-carboxamido)cyclohexane-1-carboxylic acid] | ≥ 1000 | ≥ 1000 | ≥ 1000 | 100 to 1000
O=C(NC1CCC(C(=O)O)CC1)c1cccn2c(=O)c3ccccc3nc12 (stereo not drawn) [Example 12, 4-(11-oxo-11H-pyrido[2,1-b]quinazoline-6-carboxamido)cyclohexane-1-carboxylic acid] | 100 to 1000 | ≥ 1000 | ≥ 1000 | 100 to 1000
O=C(N[C@H]1CC[C@@H](C(=O)O)CC1)c1cccn2c(=O)c3cc(-c4ccccc4)ccc3nc12 [Example 15, (1S,4S)-4-(11-oxo-2-phenyl-11H-pyrido[2,1-b]quinazoline-6-carboxamido)cyclohexane-1-carboxylic acid] | < 100 | ≥ 1000 | ≥ 1000 | < 100
O=C(NC1CCC(C(=O)O)CC1)c1cccn2c(=O)c3cc(O)ccc3nc12 (stereo not drawn) [Example 19, 4-(2-hydroxy-11-oxo-11H-pyrido[2,1-b]quinazoline-6-carboxamido)cyclohexane-1-carboxylic acid] | 100 to 1000 |  |  | 100 to 1000
O=C(N[C@H]1CC[C@@H](C(=O)O)CC1)c1cccn2c(=O)c3cc(-c4cccc(F)c4)ccc3nc12 [Example 29, (cis)-4-(2-(3-fluorophenyl)-11-oxo-11H-pyrido[2,1-b]quinazoline-6-carboxamido)cyclohexane-1-carboxylic acid] | < 100 |  |  | < 100
O=C(N[C@H]1CC[C@@H](C(=O)O)CC1)c1cccn2c(=O)c3cc(-c4ccc(F)c(F)c4)ccc3nc12 [Example 30, (cis)-4-(2-(3,4-difluorophenyl)-11-oxo-11H-pyrido[2,1-b]quinazoline-6-carboxamido)cyclohexane-1-carboxylic acid] | < 100 |  |  | < 100
N#Cc1ccc(-c2ccc3nc4c(C(=O)N[C@H]5CC[C@@H](C(=O)O)CC5)cccn4c(=O)c3c2)cc1 [Example 31, (cis)-4-(2-(4-cyanophenyl)-11-oxo-11H-pyrido[2,1-b]quinazoline-6-carboxamido)cyclohexane-1-carboxylic acid] | < 100 |  |  | < 100
N#Cc1cccc(-c2ccc3nc4c(C(=O)N[C@H]5CC[C@@H](C(=O)O)CC5)cccn4c(=O)c3c2)c1 [Example 32, (cis)-4-(2-(3-cyanophenyl)-11-oxo-11H-pyrido[2,1-b]quinazoline-6-carboxamido)cyclohexane-1-carboxylic acid] | < 100 |  |  | < 100
O=C(O)c1ccc(-c2ccc3nc4c(C(=O)N[C@H]5CC[C@@H](C(=O)O)CC5)cccn4c(=O)c3c2)cc1 [Example 33, 4-(6-(((cis)-4-carboxycyclohexyl)carbamoyl)-11-oxo-11H-pyrido[2,1-b]quinazolin-2-yl)benzoic acid] | < 100 |  |  | < 100
O=C(N[C@H]1CC[C@@H](C(=O)O)CC1)c1cccn2c(=O)c3cc(-c4cccnc4)ccc3nc12 [Example 34, (cis)-4-(11-oxo-2-(pyridin-3-yl)-11H-pyrido[2,1-b]quinazoline-6-carboxamido)cyclohexane-1-carboxylic acid] | < 100 |  |  | < 100
O=C(N[C@H]1CC[C@H](C(=O)O)CC1)c1cccn2c(=O)c3cc(-c4ccncc4)ccc3nc12 [Example 35, (trans)-4-(11-oxo-2-(pyridin-4-yl)-11H-pyrido[2,1-b]quinazoline-6-carboxamido)cyclohexane-1-carboxylic acid] | 100 to 1000 |  |  | ≥ 1000
O=C(N[C@H]1CC[C@@H](C(=O)O)CC1)c1cccn2c(=O)c3cc(-c4ccncc4F)ccc3nc12 [Example 36, (cis)-4-(2-(3-fluoropyridin-4-yl)-11-oxo-11H-pyrido[2,1-b]quinazoline-6-carboxamido)cyclohexane-1-carboxylic acid] | < 100 |  |  | 100 to 1000
O=C(N[C@H]1CC[C@@H](C(=O)O)CC1)c1cccn2c(=O)c3cc(-c4cncnc4)ccc3nc12 [Example 37, (cis)-4-(11-oxo-2-(pyrimidin-5-yl)-11H-pyrido[2,1-b]quinazoline-6-carboxamido)cyclohexane-1-carboxylic acid] | < 100 |  |  | 100 to 1000
Cn1cc(-c2ccc3nc4c(C(=O)N[C@H]5CC[C@@H](C(=O)O)CC5)cccn4c(=O)c3c2)cn1 [Example 38, (cis)-4-(2-(1-methyl-1H-pyrazol-4-yl)-11-oxo-11H-pyrido[2,1-b]quinazoline-6-carboxamido)cyclohexane-1-carboxylic acid] | < 100 |  |  | < 100
O=C(N[C@H]1CC[C@@H](C(=O)O)CC1)c1cccn2c(=O)c3cc(-c4cccs4)ccc3nc12 [Example 39, (cis)-4-(11-oxo-2-(thiophen-2-yl)-11H-pyrido[2,1-b]quinazoline-6-carboxamido)cyclohexane-1-carboxylic acid] | < 100 |  |  | < 100
O=C(N[C@H]1CC[C@@H](C(=O)O)CC1)c1cc(Br)cn2c(=O)c3ccccc3nc12 [Example 40, (cis)-4-(8-bromo-11-oxo-11H-pyrido[2,1-b]quinazoline-6-carboxamido)cyclohexane-1-carboxylic acid] | 100 to 1000 |  |  | < 100
O=C(NC1CC(C(=O)O)C1)c1cccn2c(=O)c3cc(C4CC4)ccc3nc12 (stereo not drawn) [Example 41, 3-(2-cyclopropyl-11-oxo-11H-pyrido[2,1-b]quinazoline-6-carboxamido)cyclobutane-1-carboxylic acid] | 100 to 1000 |  |  | 100 to 1000
N#Cc1ccc(-c2ccc3nc4c(C(=O)N[C@H]5CC[C@@H](C(=O)O)CC5)cccn4c(=O)c3c2)s1 [Example 42, (1S,4S)-4-(2-(5-cyanothiophen-2-yl)-11-oxo-11H-pyrido[2,1-b]quinazoline-6-carboxamido)cyclohexane-1-carboxylic acid] | < 100 |  |  | < 100
NC(=O)c1ccc(-c2ccc3nc4c(C(=O)N[C@H]5CC[C@@H](C(=O)O)CC5)cccn4c(=O)c3c2)s1 [Example 43, (1S,4S)-4-(2-(5-carbamoylthiophen-2-yl)-11-oxo-11H-pyrido[2,1-b]quinazoline-6-carboxamido)cyclohexane-1-carboxylic acid] | < 100 |  |  | < 100
Cn1cnc(-c2ccc3nc4c(C(=O)N[C@H]5CC[C@@H](C(=O)O)CC5)cccn4c(=O)c3c2)c1 [Example 44, (1S,4S)-4-(2-(1-methyl-1H-Imidazol-4-yl)-11-oxo-11H-pyrido[2,1-b]quinazoline-6-carboxamido)cyclohexane-1-carboxylic acid] | < 100 |  |  | < 100
O=C(N[C@H]1CC[C@@H](C(=O)O)CC1)c1cccn2c(=O)c3cc(-c4ccc(C5CC5)s4)ccc3nc12 [Example 45, (1S,4S)-4-(2-(5-cyclpropylthiophen-2-yl)-11-oxo-11H-pyrido[2,1-b]quinazoline-6-carboxamido)cyclohexane-1-carboxylic acid] | < 100 |  |  | < 100
O=C(O)c1ccc(-c2ccc3nc4c(C(=O)N[C@H]5CC[C@@H](C(=O)O)CC5)cccn4c(=O)c3c2)s1 [Example 47, 5-(6-(((1s,4s)-4-carboxycyclohexyl)carbamoyl)-11-oxo-11H-pyrido[2,1-b]quinazolin-2-yl)thiophene-2-carboxylic acid] | < 100 |  |  | < 100
